{"source": "patent US11078462B2", "about": "“Perivascular stromal cells from primate pluripotent stem cells” (ReCyte Therapeutics, Inc., priority 2014, dated 2021)", "system": "HUVEC+017-PC-M co-cultures", "assay": "Kit co-culture assay to study angiogenesis in vitro (tube formation on MATRIGEL)", "assay_type": "cell-based, human", "description": "A kit has been developed to provide a unique, robust co-culture assay to study angiogenesis in vitro. In this model system, we utilize a unique perivascular stromal cell line (017-PC-M) that when co-cultured with human umbilical vein endothelial cells (HUVEC) results in the rapid formation of large angiogenic networks with long-term stability of 4-6 days without the need for additional growth factors and complex media supplements.\nVASCULIFE® assay media: VASCULIFE® basal media plus 10 mM L-glutamine (final concentration)\nAssay Protocol: • 1. Four days (Day −4) prior to assay, HUVECs should be thawed and seeded at 3.5×10^4 cells per cm^2 into a 150 cm^2 tissue culture flask containing VASCULIFE® growth media. Incubate cells at 37° C. and 5% CO2. Exchange full volume of media every 1-2 days. • 2. Two days (Day −2) prior to assay, PC-M cells should be thawed and seeded at 10×10^4 cells per cm^2 into a 150 cm^2 tissue culture flask containing VASCULIFE® growth media. Incubate cells at 37° C. and 5% CO2. Exchange full volume of media every 1-2 days. • 3. At Day 0, prepare 96-well plate with MATRIGEL® coating of 50 μL per well. Let plate warm for at least 1 hour prior to seeding cells. • 4. Prepare assay solution: dilute L-glutamine into VASCULIFE® medium. • 5. On Day 0, harvest both HUVECs and PC-M cells. Recommended: Use 5-7.5 mL ACCUTASE® treatment for 3-5 minutes to detach cells, then quench Accutase® with an equivolume of Vasculife® growth media before pelleting cells. • 6. Prepare VASCULIFE® assay media (500 μL per each triplicate condition). • 7. Pellet cells at 250-350 rpm for 5 minutes at room temperature. • 8. Decant media and re-suspend into 1 mL of VASCULIFE® assay media. • 9. Measure cell concentration and viability:\n• 10. Mix cells at a ratio of 3:1 HUVECs: 017-PC-M cells and seed at a final density of 37,500 cells per well. For one set of triplicates, mix approximately 85,000 HUVECs with 28,000 017-PC-M cells. • 11. Allow co-culture to adhere at 37° C. for 3-4 hours. • 12. […]", "note": "Structures can show the parent of a compound that is named as a salt.", "data": [{"molecule": "Cc1ccc(C(=O)Nc2ccc(S(=O)(=O)O)c3cc(S(=O)(=O)O)cc(S(=O)(=O)O)c23)cc1NC(=O)c1cccc(NC(=O)Nc2cccc(C(=O)Nc3cc(C(=O)Nc4ccc(S(=O)(=O)O)c5cc(S(=O)(=O)O)cc(S(=O)(=O)O)c45)ccc3C)c2)c1", "note": "[Suramin, suramin hexasodium salt]", "values": [{"measurement": "reduce tube formation", "setting": "Addition of 50 μM Suramin", "value": "> 90", "unit": "%"}]}, {"molecule": "VEGF", "values": [{"measurement": "formation of tubes after addition of VEGF to the assay media", "setting": "VEGF concentrations ≤2.5 ng/mL or ≥10 ng/mL, monocultures and/or co-cultures", "value": "may inhibit formation of tubes"}]}, {"molecule": "basic FGF: basic fibroblast growth factor added to the assay media", "values": [{"measurement": "tube formation after addition of basic FGF to the assay media", "setting": "concentrations ≥10 ng/mL, monocultures of HUVECs, of 017-PC-M cells and/or co-cultures", "value": "little to no tube formation"}]}]}
